The assay deals with GABA-A receptor. The assay is described as follows: 35S-TBPS binding assay (GABAA receptor binding ability test). The arrangement: species or system Sprague-Dawley rat. The settings on record: rat cerebral cortex cell membrane, 5 μM GABA, 2 nM 35S-TBPS; read-out: 35S-TBPS bindng test: IC50 on inhibiting the TBPS binding activity. As for the experimental part: 1.2 Experimental Procedures 1.2.1 Extraction of Cerebral Cortex Cell Membrane:
1. The cerebral cortex of male Sprague-Dawley rat was isolated.
2. A pre-chilled 0.32 M sucrose solution (one tablet of protease inhibitor was added per 100 ml) was added to the cerebral cortex (the volume of sucrose solution was 10 times the volume of the cerebral cortex). The mixture was crushed with a 50 mL glass tissue homogenizer in batches and mixed well.
3. The mixture was centrifuged at 1500 g, 4° C. for 10 minutes, and the supernatant was collected.
4. The mixture was centrifuged at 20000 g, 4° C. for 30 minutes, and the supernatant was discarded.
5. The precipitate was resuspended with the pre-chilled phosphate buffer saline (PBS) (one tablet of protease inhibitor was added per 100 ml). An average of 4 ml of PBS was added per rat, and the mixture was mixed well by a glass tissue homogenizer.
6. The mixture was centrifuged at 10000 g, 4° C. for 10 minutes, and the supernatant was discarded.
7. Steps 5 and 6 were repeated three times.
8. Finally, the precipitate was resuspended with 4 volumes of PBS. The resulting solution was dispensed, frozen in liquid nitrogen, and stored at −80° C.
9. The protein concentration was measured by the bicinchoninic acid (BCA) method.
1.2.2 ^35S-TBPS Binding Assay
1. 230 μL of PBS was added to each well of a well plate with 1.1 ml volume.
2. 60 μL of the cerebral cortex cell membrane (5 μg/μL) solution was added to each well, and the mixture was mixed well.
3. The test compound (3 μL per well) was added, and the plate was incubated at 25° C. for 5 minutes. The DMSO concentration was 1%. The initial compound concentration was 1 μM, and a 3-fold dilution in gradient was carried out to obtain a total of 8 gradients and 2 replicates. 1% DMSO was used as a negative control, and 10 μM P026-2 was used as a positive control.
4. GABA was added at a final concentration of 5 μM, and incubated at 25° C. for 5 minutes. 1 mM GABA solution was formulated, and 1.5 μL of the solution was added to each well.
5. ^35S-TBPS was added at a final concentration of 2 nM. The concentration of isotope mother solution was 9.7 μM. After dilution with PBS for 100 times, 6 μL of the diluted isotope solution was added to each well.
6. The plate was incubated at 4° C. for 20 hours.
7. The FilterMate GF/C plate was pre-treated with 0.5% PEI, and incubated at 4° C. for 1 hour.
8. The FilterMate GF/C plate was washed with Universal Harvester twice, 50 ml PBS each time.
9. The reaction solution was transferred to the GF/C plate, and each well was washed 4 times with 900 μL of PBS.
10. The washed GF/C plate was placed at 55° C. and dried for 10 minutes.
11. 40 μL of scintillation solution was added to each well, and the CPM value was read with TopCount.
1.2.3 Experimental Data Processing Method:
In the experiment, the CPM (counts per minute) value was read with TopCount. According to the readings of the High control (DMSO) and the Low control ([…] of the positive compound) experimental groups, the […] inhibition was calculated based on the following formula: % Inhibition=100×(CPMHigh control−CPMSample)/(CPMHigh control−CPMLow control)
The IC50 of the compound was calculated according to the following 4-parameter nonlinear logic formula: Y=Bottom+(Top−Bottom)/(1+10^((Log IC50−X)*Hill Slope)),
wherein: • X represents the log of compound concentration, • Y represents the 0 Inhibition.
The effect of the compound of the present invention on the TBPS binding activity was determined by the above test, and the measured IC50 values are shown in Table 1.

A word on the IC50: it is the concentration at which inhibition is half-maximal. With `C[C@@]1(O)CC[C@H]2[C@H](CC[C@@H]3[C@@H]2CC[C@@]2(C)[C@H]3[C@@H]3C[C@@H]3[C@@H]2C(=O)Cn2nc(C#N)cc2C#N)C1` [Example 127, 1-(2-((2R,4aS,4bR,6aS,7S,7aS,8aR,8bR,8cR,10aR)-2-Hydroxy-2,6a-dimethyloctadecahydrocyclopropa[4,5]cyclopenta[1,2-a]phenanthren-7-yl)-2-oxoethyl)-1H-pyrazole-3,5-dicarbonitrile], the IC50 was 0.0061 µM.

For the compound `C[C@@]1(O)CC[C@H]2[C@H](CC[C@@H]3[C@@H]2CC[C@@]2(C)[C@H]3[C@@H]3C[C@@H]3[C@@H]2C(=O)Cn2cc(-c3ncco3)cn2)C1` [Example 128, 1-((2R,4aS,4bR,6aS,7S,7aS,8aR,8bR,8cR,10aR)-2-Hydroxy-2,6a-dimethyloctadecahydrocyclopropa[4,5]cyclopenta[1,2-a]phenanthren-7-yl)-2-(4-(oxazol-2-yl)-1H-pyrazol-1-yl)ethan-1-one], the IC50 turned out to be 0.0158 µM.

As for `C[C@@H]1C[C@H](C(=O)Cn2ccc(C(F)(F)F)n2)[C@@]2(C)CC[C@H]3[C@@H](CC[C@@H]4C[C@](C)(O)CC[C@@H]43)[C@H]12` [Example 131, 1-((3R,5R,8R,9R,10S,13S,14S,15R,17S)-3-Hydroxy-3,13,15-trimethylhexadecahydro-1H-cyclopenta[a]phenanthren-17-yl)-2-(3-(trifluoromethyl)-1H-pyrazol-1-yl)ethan-1-one], the IC50 worked out at 0.008 µM.

For `C[C@@H]1C[C@H](C(=O)Cn2ccnn2)[C@@]2(C)CC[C@H]3[C@@H](CC[C@@H]4C[C@](C)(O)CC[C@@H]43)[C@H]12` [Example 132, 1-((3R,5R,8R,9R,10S,13S,14S,15R,17S)-3-Hydroxy-3,13,15-trimethylhexadecahydro-1H-cyclopenta[a]phenanthren-17-yl)-2-(1H-1,2,3-triazol-1-yl)ethan-1-one], the IC50 worked out at 0.0246 µM.

For the compound `C[C@@H]1C[C@H](C(=O)Cn2cc(C(=O)N3CCC3)cn2)[C@@]2(C)CC[C@H]3[C@@H](CC[C@@H]4C[C@](C)(O)CC[C@@H]43)[C@H]12` [Example 133, 2-(4-(Azetidine-1-carbonyl)-1H-pyrazol-1-yl)-1-((3R,5R,8R,9R,10S,13S,14S,15R,17S)-3-hydroxy-3,13,15-trimethylhexadecahydro-1H-cyclopenta[a]phenanthren-17-yl)ethan-1-one], the concentration for half-maximal inhibition (IC50) worked out at 0.0178 µM.

Consider `C[C@@H]1C[C@H](C(=O)CN2C(=O)CSC2=O)[C@@]2(C)CC[C@H]3[C@@H](CC[C@@H]4C[C@](C)(O)CC[C@@H]43)[C@H]12` [Example 136, 3-(2-((3R,5R,8R,9R,10S,13S,14S,15R,17S)-3-Hydroxy-3,13,15-trimethylhexadecahydro-1H-cyclopenta[a]phenanthren-17-yl)-2-oxoethyl)thiazolidine-2,4-dione], for which the half-inhibitory concentration (IC50) turned out to be 0.0265 µM.

`CC[C@@H]1C[C@H](C(=O)Cn2nnc(C)n2)[C@@]2(C)CC[C@H]3[C@@H](CC[C@@H]4C[C@](C)(O)CC[C@@H]43)[C@H]12` [Example 139, 1-((3R,5R,8R,9R,10S,13S,14S,15R,17S)-15-Ethyl-3-hydroxy-3,13-dimethylhexadecahydro-1H-cyclopenta[a]phenanthren-17-yl)-2-(5-methyl-2H-tetrazol-2-yl)ethan-1-one]: the concentration for half-maximal inhibition (IC50) is 0.027 µM.

In the case of `CC[C@@H]1C[C@H](C(=O)Cn2nc(C#N)cc2C#N)[C@@]2(C)CC[C@H]3[C@@H](CC[C@@H]4C[C@](C)(O)CC[C@@H]43)[C@H]12` [Example 142, 1-(2-((3R,5R,8R,9R,10S,13S,14S,15R,17S)-15-Ethyl-3-hydroxy-3,13-dimethylhexadecahydro-1H-cyclopenta[a]phenanthren-17-yl)-2-oxoethyl)-1H-pyrazole-3,5-dicarbonitrile], the IC50 was 0.0162 µM.

For `C[C@@]1(O)CC[C@H]2[C@H](CC[C@@H]3[C@@H]2CC[C@@]2(C)[C@H]3[C@H](C3CC3)C[C@@H]2C(=O)Cn2ccc(C(F)(F)F)n2)C1` [Example 144, 1-((3R,5R,8R,9R,10S,13S,14S,15S,17S)-15-Cyclopropyl-3-hydroxy-3,13-dimethylhexadecahydro-1H-cyclopenta[a]phenanthren-17-yl)-2-(3-(trifluoromethyl)-1H-pyrazol-1-yl)ethan-1-one], the IC50 amounted to 0.0186 µM.

With `C[C@@]1(O)CC[C@H]2[C@H](CC[C@@H]3[C@@H]2CC[C@@]2(C)[C@H]3[C@H](C3CC3)C[C@@H]2C(=O)Cn2cc(C#N)c(Cl)n2)C1` [Example 147, 3-Chloro-1-(2-((3R,5R,8R,9R,10S,13S,14S,15S,17S)-15-cyclopropyl-3-hydroxy-3,13-dimethylhexadecahydro-1H-cyclopenta[a]phenanthren-17-yl)-2-oxoethyl)-1H-pyrazole-4-carbonitrile], the 50% inhibitory concentration (IC50) is 0.0244 µM.

With `CC[C@@H]1C[C@H](C(=O)Cn2ncnn2)[C@@]2(C)CC[C@H]3[C@@H](CC[C@@H]4C[C@](C)(O)CC[C@@H]43)[C@H]12` [Example 149, 1-((3R,5R,8R,9R,10S,13S,14S,15R,17S)-15-Ethyl-3-hydroxy-3,13-dimethylhexadecahydro-1H-cyclopenta[a]phenanthren-17-yl)-2-(2H-tetrazol-2-yl)ethan-1-one], the concentration for half-maximal inhibition (IC50) worked out at 0.0256 µM.

On to `C[C@@H]1C[C@H](C(=O)COc2cnc(C(F)(F)F)nc2)[C@@]2(C)CC[C@H]3[C@@H](CC[C@@H]4C[C@](C)(O)CC[C@@H]43)[C@H]12` [Example 150, 1-((3R,5R,8R,9R,10S,13S,14S,15R,17S)-3-Hydroxy-3,13,15-trimethylhexadecahydro-1H-cyclopenta[a]phenanthren-17-yl)-2-((2-(trifluoromethyl)pyrimidin-5-yl)oxy)ethan-1-one], for which the 50% inhibitory concentration (IC50) is 0.0088 µM.

As for `C[C@@]1(O)CC[C@H]2[C@H](CC[C@@H]3[C@@H]2CC[C@@]2(C)[C@H]3[C@H](C3CC3)C[C@@H]2C(=O)COc2cnc(C(F)(F)F)nc2)C1` [Example 151, 1-((3R,5R,8R,9R,10S,13S,14S,15S,17S)-15-Cyclopropyl-3-hydroxy-3,13-dimethylhexadecahydro-1H-cyclopenta[a]phenanthren-17-yl)-2-((2-(trifluoromethyl)pyrimidin-5-yl)oxy)ethan-1-one], the IC50 was 0.0262 µM.

As to `C[C@@]1(O)CC[C@H]2[C@H](CC[C@@H]3[C@@H]2CC[C@]2(C)[C@@H](C(=O)COCC4(C#N)CC4)CC[C@@H]32)C1` [Example 166, 1-((2-((3R,5R,8R,9R,10S,13S,14S,17S)-3-Hydroxy-3,13-dimethylhexadecahydro-1H-cyclopenta[a]phenanthren-17-yl)-2-oxoethoxy)methyl)cyclopropane-1-carbonitrile], the IC50 came to 0.0384 µM.

The values above are taken from patent US12139508B2, “Steroid derivative regulators, method for preparing the same, and uses thereof” (JIANGSU HANSOH PHARMACEUTICAL GROUP CO., LTD., priority 2018, dated 2024).
